Results from the NIST ThermoML archive (doi:10.1016/j.jct.2011.06.007).
± gives the expanded uncertainty stated by the source.

Key:
[1] = Molar enthalpy of transition or fusion; conditions: Crystal; DSC
[2] = for mass density: 101.33 kPa, Liquid, Vibrating tube method
[3] = activity coefficient (dimensionless); of the first substance listed, at infinite dilution; xn = mol fraction of the nth substance listed; conditions: 101 kPa, Liquid, Chromatography, x1 = 0

CCCC[N+]1(C)CCCC1.N#C[B-](C#N)(C#N)C#N [1-butyl-1-methylpyrrolidinium tetracyanoborate]
Molar enthalpy of transition or fusion [1]: 8.51 ± 0.184 kcal/mol
mass density ([2]; 318.15 K): 962.29 ± 1 kg/m3
mass density ([2]; 328.15 K): 955.61 ± 1 kg/m3
mass density ([2]; 338.15 K): 949 ± 1 kg/m3
mass density ([2]; 348.15 K): 942.32 ± 1 kg/m3
mass density ([2]; 358.15 K): 935.59 ± 1 kg/m3
mass density ([2]; 368.15 K): 928.86 ± 1 kg/m3
Normal melting temperature ([2]; Crystal, DTA): 17.30 ± 0.39 °C

CCCCCCCC [octane] + CCCC[N+]1(C)CCCC1.N#C[B-](C#N)(C#N)C#N
activity coefficient ([3]; 318.15 K): 32.6 ± 2.2
activity coefficient ([3]; 328.15 K): 30.2 ± 2.1
activity coefficient ([3]; 338.15 K): 27.5 ± 1.9
activity coefficient ([3]; 348.15 K): 26.2 ± 1.8
activity coefficient ([3]; 358.15 K): 23.8 ± 1.6
activity coefficient ([3]; 368.15 K): 22.5 ± 1.5

CCCC(C)=O [pentan-2-one] + CCCC[N+]1(C)CCCC1.N#C[B-](C#N)(C#N)C#N
activity coefficient ([3]; 318.15 K): 0.692 ± 0.047
activity coefficient ([3]; 328.15 K): 0.701 ± 0.047
activity coefficient ([3]; 338.15 K): 0.721 ± 0.048
activity coefficient ([3]; 348.15 K): 0.735 ± 0.049
activity coefficient ([3]; 358.15 K): 0.738 ± 0.049
activity coefficient ([3]; 368.15 K): 0.755 ± 0.05

CCC(=O)CC [pentan-3-one] + CCCC[N+]1(C)CCCC1.N#C[B-](C#N)(C#N)C#N
activity coefficient ([3]; 318.15 K): 0.65 ± 0.044
activity coefficient ([3]; 328.15 K): 0.664 ± 0.045
activity coefficient ([3]; 338.15 K): 0.688 ± 0.046
activity coefficient ([3]; 348.15 K): 0.71 ± 0.047
activity coefficient ([3]; 358.15 K): 0.719 ± 0.048
activity coefficient ([3]; 368.15 K): 0.732 ± 0.048

CCCCC [pentane] + CCCC[N+]1(C)CCCC1.N#C[B-](C#N)(C#N)C#N
activity coefficient ([3]; 318.15 K): 12.1 ± 0.8
activity coefficient ([3]; 328.15 K): 11.2 ± 0.8
activity coefficient ([3]; 338.15 K): 10.5 ± 0.7
activity coefficient ([3]; 348.15 K): 10.2 ± 0.7
activity coefficient ([3]; 358.15 K): 9.56 ± 0.65
activity coefficient ([3]; 368.15 K): 9.09 ± 0.62

CCCO [propan-1-ol] + CCCC[N+]1(C)CCCC1.N#C[B-](C#N)(C#N)C#N
activity coefficient ([3]; 318.15 K): 1.5 ± 0.1
activity coefficient ([3]; 328.15 K): 1.36 ± 0.09
activity coefficient ([3]; 338.15 K): 1.27 ± 0.08
activity coefficient ([3]; 348.15 K): 1.18 ± 0.08
activity coefficient ([3]; 358.15 K): 1.1 ± 0.07
activity coefficient ([3]; 368.15 K): 1.04 ± 0.07

C1CCOC1 [tetrahydrofuran] + CCCC[N+]1(C)CCCC1.N#C[B-](C#N)(C#N)C#N
activity coefficient ([3]; 318.15 K): 0.61 ± 0.043
activity coefficient ([3]; 328.15 K): 0.611 ± 0.043
activity coefficient ([3]; 338.15 K): 0.639 ± 0.044
activity coefficient ([3]; 348.15 K): 0.652 ± 0.045
activity coefficient ([3]; 358.15 K): 0.661 ± 0.045
activity coefficient ([3]; 368.15 K): 0.679 ± 0.046

c1ccsc1 [thiophene] + CCCC[N+]1(C)CCCC1.N#C[B-](C#N)(C#N)C#N
activity coefficient ([3]; 318.15 K): 0.659 ± 0.045
activity coefficient ([3]; 328.15 K): 0.663 ± 0.045
activity coefficient ([3]; 338.15 K): 0.684 ± 0.046
activity coefficient ([3]; 348.15 K): 0.702 ± 0.047
activity coefficient ([3]; 358.15 K): 0.711 ± 0.047
activity coefficient ([3]; 368.15 K): 0.734 ± 0.049

Cc1ccccc1 [toluene] + CCCC[N+]1(C)CCCC1.N#C[B-](C#N)(C#N)C#N
activity coefficient ([3]; 318.15 K): 1.09 ± 0.07
activity coefficient ([3]; 328.15 K): 1.11 ± 0.07
activity coefficient ([3]; 338.15 K): 1.14 ± 0.07
activity coefficient ([3]; 348.15 K): 1.16 ± 0.07
activity coefficient ([3]; 358.15 K): 1.18 ± 0.08
activity coefficient ([3]; 368.15 K): 1.2 ± 0.08

O [water] + CCCC[N+]1(C)CCCC1.N#C[B-](C#N)(C#N)C#N
activity coefficient ([3]; 318.15 K): 2.15 ± 0.15
activity coefficient ([3]; 328.15 K): 1.87 ± 0.13
activity coefficient ([3]; 338.15 K): 1.73 ± 0.12
activity coefficient ([3]; 348.15 K): 1.58 ± 0.1
activity coefficient ([3]; 358.15 K): 1.39 ± 0.09
activity coefficient ([3]; 368.15 K): 1.28 ± 0.08
